Assay [1] concerns 21 human preclinical TNBC cell line models. Briefly: CellTiter-Glo cell viability, TNBC cell lines. The following applies: 21 TNBC cell lines, read-out: anti-proliferative IC50, CellTiter-Glo. It counts as cell-based. As for the experimental part: Cell viability assays: Cells were seeded in 96-well plates (2×10^3 cells/well) one day before the treatment. Cells were treated with varying concentrations of ERX-41 or ERX-11 analogs for 3-6 days. Then effects of ERX-41 or ERX-11 analogs on cell viability were measured in triplicate or sextuplicate with multiple biological replicates using the WST-1 (Promega), MTT as previously described^33 or CellTiter-Glo 2.0 (Promega) assays.

The test system of the next assay is TNBC cells (MDA-MB-231). Kind of assay: Transmission electron microscopy of ER. Format: cell-based, Human. The following applies: 1 μM, within 4 h. On the procedure: Transmission Electron Microscopy: DMSO or ERX-41 treated cells were fixed with 2.5% glutaraldehyde (Electron Microscopy Sciences) in 0.1 M sodium cacodylate pH7.4 buffer (Electron Microscopy Sciences) for 20 min at room temperature. After rinsing with 0.1 M sodium cacodylate pH7.4 buffer, cells were further fixed with 1% Osmium with 0.8% K3Fe(CN6) in 0.1 M sodium cacodylate pH7.4 buffer. After pre-staining with 4% uranyl acetate in 50% ethanol, cells were dehydrated with series concentrations of ethanol (from 50% to 100%). After transitioning from propylene oxide to resin and embedding in Embed 812 resin (Electron Microscopy Sciences), cells were located using light microscopy and trimmed out. 60-70 nm-thin sections were cut, mounted on formvar-coated grids, and viewed by a transmission electron microscope (Tecnai G2 spirit; FEI) equipped with a LaB6 source using a voltage of 120 kV.

The test system of another assay is LAL. Kind of assay: Biotinylated compound pull down of LAL from SUM-159 lysates. It counts as binding, Human. On the procedure:
The lysate was incubated with biotinylated-ERX-11 or biotinylated-ERX-41 overnight, followed by one-hour incubation with M-270 streptavidin Dynabeads. After four times of washes with lysis buffer, samples were eluted by boiling in 2× Laemmli sample buffer. Bound proteins were resolved in SDS-PAGE followed by western blotting.

In assay [2] the test system is HSPA5, DDIT3, sXBP1 mRNA in HMEC cells. Briefly: RT-qPCR of ER stress / UPR genes, HMEC. As to conditions: 1 μM. It counts as cell-based, human. (Quantitative PCR measures a nucleic acid by following its amplification.)
In assay [3] the test system is p-PERK, IRE1α, eIF2α, CHOP in TNBC cells. Kind of assay: Western blotting of UPR proteins, TNBC cells. The following applies: 1 μM. It counts as cell-based, Human. On the procedure: Western blotting: Whole cell lysates from breast cancer cells were prepared with 2× sample buffer (60 mM Tris-HCl, pH 6.8, 2% sodium dodecyl sulfate, 10% glycerol), and before loading mixed with loading buffer (5% 2-mercaptoethanol, 0.1% bromophenol blue) and boiled for denaturation, as previously described.^33 Proteins were separated by SDS-PAGE and subjected to Western analysis using antibodies. To detect nascent translated proteins, puromycin (final concentration 10 μg/mL) was added into cell plates 30 minutes before harvesting cells. Then samples were subjected to the Western blotting. Nascent proteins were detected by anti-puromycin antibody.
(In general: Immunoblotting shows a protein as a band on a membrane.)

A further assay concerns SUM-159 cells. Kind of assay: Airyscan / live cell confocal imaging of ER tubule width, SUM-159 mCherry-RAMP4. Format: cell-based, Human. On the procedure:
Live cell confocal and Airyscan imaging: To visualize ER structure, stable SUM-159 cell lines expressing mCherry-RAMP4 were established. pLenti-X1-hygro-mCherry-RAMP4 was purchased from Addgene (Addgene #118391; //n2t.net/addgene:118391; RRID:Addgene_118391) (via Jacob Corn).^35 The live cell images were acquired by Confocal Zeiss LSM880 Airyscan. ER tubule width was calculated by drawing 1px-wide line scans perpendicular to the long axis of individual ER tubules. In MATLAB, the peak intensity along each line scan was determined and the distance between the half maximum intensity on either side of the peak was measured. The code for this analysis is available at: //github.com/andmoo91/HalfMaxScript.

Setting [4] is: parental SUM-159, 1 μM, from ~200 nm.

Experimental findings from patent US20250114313A1, “OLIGO-BENZAMIDE ANALOGS AND THEIR USE IN CANCER TREATMENT” (BOARD OF REGENTS, THE UNIVERSITY OF TEXAS SYSTEM, priority 2022, published 2025) are described below.

A value given as a limit tells only on which side of the number the result lay.

In the case of `CC(C)COc1cc(C(=O)Nc2ccc(C(=O)N[C@H]3CC[C@H](C)CC3)cc2OCC(C)C)ccc1NC(=O)c1ccc([N+](=O)[O-])c(OCCO)c1` [ERX-41], in assay [1], the IC50 (usually the concentration that inhibits the measured activity by half) is below 250 nM. The “ER morphology by TEM” value in the assay with TNBC cells (MDA-MB-231) is “dramatic dilation of the ER”. In addition, in the assay with LAL (biotinylated ERX-41, WT, H274Y, ΔLXXLL, L242P), the “pulldown of LIPA constructs” value is “interaction between ERX-41 and proteins encoded by WT-LIPA and H274Y MT-LIPA but not ΔLXXLL MT-LIPA or L242P MT-LIPA”. In addition, in the assay with LAL (biotinylated compound, streptavidin pull down), the “binding to LAL in TNBC cells” value is on record as “binds to LAL”. Also, in assay [2], the “upregulation of HSPA5, DDIT3, sXBP1 mRNA in HMEC” value is “not in HMEC cells”. In assay [3] (p-PERK, IRE1α, eIF2α, CHOP), the “induction of ER stress / UPR proteins” value is “induces ER stress and downstream UPR pathways”. The “PERK activation and peIF2α, parental SUM-159” value in assay [3] (western) is given as “activates PERK”. The “ER tubule width, mean±S.D., airyscan” value in the assay with SUM-159 cells (1 μM, 2 h, 0 h = 260±80 nm) came to 660±320 nm. Moreover, the “measured ER dilation following treatment” value in the assay with SUM-159 cells (discussion) was around 600 nm. In addition, in the assay with SUM-159 cells (setting [4]), the “ER tubule diameter, live cell confocal, 2 h” value is given as around 500 nm and the “ER tubule diameter, live cell confocal, 4 h” value was around 620 nm.
